Source: paper PMC12082625, “Redox-State-Dependent Structural Changes within a Prokaryotic 6–4 Photolyase” (Journal of the American Chemical Society, 2025)
One block for each compound: values may come before it.

What was measured:
Assay type in all cases: binding
[1] = molecular target: T1, Cc(6–4)PL (Caulobacter vibrioides, UniProt Q9AAF5, K48A); experiment: X-ray crystal structure (synchrotron, […] Å); UV/vis spectroscopy; details: antenna site; occupancy in crystal, not an affinity
T1 construct: gene CC_0646; pET28-based, nickel-NTA purified (His-tagged by implication) from E. coli BL21(DE3); model spans M1-S508; contains FAD, DLZ and [4Fe-4S] cluster
T1 sequence (Q9AAF5 entry or part of it K48A): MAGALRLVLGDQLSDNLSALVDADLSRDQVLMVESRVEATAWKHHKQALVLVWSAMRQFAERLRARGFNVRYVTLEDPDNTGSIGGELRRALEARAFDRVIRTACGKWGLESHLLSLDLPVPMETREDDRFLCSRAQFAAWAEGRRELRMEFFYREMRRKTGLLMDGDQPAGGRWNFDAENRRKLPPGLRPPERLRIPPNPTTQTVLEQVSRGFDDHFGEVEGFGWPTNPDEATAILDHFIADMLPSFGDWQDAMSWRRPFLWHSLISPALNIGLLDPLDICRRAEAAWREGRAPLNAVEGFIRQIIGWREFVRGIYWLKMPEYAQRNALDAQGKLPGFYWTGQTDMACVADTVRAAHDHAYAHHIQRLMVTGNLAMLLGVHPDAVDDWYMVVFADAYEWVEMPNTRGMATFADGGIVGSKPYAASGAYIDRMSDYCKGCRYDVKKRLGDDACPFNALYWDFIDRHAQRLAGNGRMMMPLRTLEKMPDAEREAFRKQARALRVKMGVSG

[2] = molecular target: T2, Cc(6–4)PL (Caulobacter vibrioides, UniProt Q9AAF5); experiment: XFEL serial femtosecond crystallography; details: dark-adapted oxidized state, room temperature; N-terminal antenna site; co-purified cofactor
T2 construct: gene CC_0646; pET28-based, nickel-NTA purified (His-tagged by implication) from E. coli BL21(DE3); model spans M1-S508; contains FAD, DLZ and [4Fe-4S] cluster
T2 sequence (Q9AAF5 1-509): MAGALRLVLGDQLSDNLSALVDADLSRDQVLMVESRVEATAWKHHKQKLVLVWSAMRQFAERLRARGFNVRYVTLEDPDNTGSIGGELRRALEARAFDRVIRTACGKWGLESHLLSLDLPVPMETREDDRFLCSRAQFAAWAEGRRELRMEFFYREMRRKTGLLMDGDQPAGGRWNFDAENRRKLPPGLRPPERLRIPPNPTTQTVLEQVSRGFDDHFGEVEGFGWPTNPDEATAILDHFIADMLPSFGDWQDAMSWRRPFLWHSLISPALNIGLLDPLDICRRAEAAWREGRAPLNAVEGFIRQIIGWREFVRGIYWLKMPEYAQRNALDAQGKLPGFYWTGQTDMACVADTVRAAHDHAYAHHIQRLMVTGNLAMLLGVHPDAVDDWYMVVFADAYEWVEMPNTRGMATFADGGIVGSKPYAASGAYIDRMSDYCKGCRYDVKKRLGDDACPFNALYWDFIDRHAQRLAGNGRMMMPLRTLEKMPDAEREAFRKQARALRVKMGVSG

[3] = molecular target: T2, Cc(6–4)PL; experiment: XFEL serial femtosecond crystallography; in crystallo UV-vis; details: photoreduced in crystals, 50 mM DTT, anaerobic, 30 min white light and blue LED; catalytic FAD site
[4] = molecular target: T2, Cc(6–4)PL; experiment: XFEL serial femtosecond crystallography and synchrotron crystal structures; details: dark-adapted oxidized state, room temperature; catalytic FAD site; co-purified cofactor

occupancy [1]: ~ 50%
Compound: Cc1nc2c(=O)[nH]c(=O)nc-2n(C[C@H](O)[C@H](O)[C@H](O)CO)c1C [DLZ]
XFEL serial femtosecond crystallography [2]: Structural analysis reveals an intricate DLZ binding pocket with interactions involving several key residues

Compound: Cc1cc2c(cc1C)N(C[C@H](O)[C@H](O)[C@H](O)COP(=O)(O)OP(=O)(O)OC[C@H]1O[C@@H](n3cnc4c(N)ncnc43)[C@H](O)[C@@H]1O)c1[nH]c(=O)[nH]c(=O)c1N2 [FADH–]
XFEL serial femtosecond crystallography; in crystallo UV-vis [3]: structural changes occurred in the FAD binding site compared to the FADox state

Compound: Cc1cc2nc3c(=O)[nH]c(=O)nc-3n(C[C@H](O)[C@H](O)[C@H](O)COP(=O)(O)OP(=O)(O)OC[C@H]3O[C@@H](n4cnc5c(N)ncnc54)[C@H](O)[C@@H]3O)c2cc1C [FADox]
XFEL serial femtosecond crystallography and synchrotron crystal structures [4]: the damage-free structures reveal FAD’s binding arrangement with its isoalloxazine moiety engaging key amino acid residues
